Assay results from patent publication US12115178B2, “Acylated active agents and methods of their use for the treatment of autoimmune disorders” (Flagship Pioneering Innovations V, Inc., priority 2018, dated 2024).

Key:
neutrophil = test: Neutrophil chemokine production assay; type: cell-based, human; conditions: 12 h
Experimental: A volume 25 mL of human blood was layered over 15 mL of Histopaque®-1077 and centrifuged at 500 g, RT, for 30 min with no break applied to the centrifuge. The PBMC band and Histopaque®-1077 layer were removed leaving behind the bottom red layer which was mixed with 40 mL of 1× red blood cell (RBC) lysis buffer (Sigma-Aldrich) was and split into two 50 mL tubes. The volume for both fractions was brought to 50 mL with RBC lysis buffer, mixed by inversion, and then incubated at RT for 10 min. Solutions were centrifuged at 250 g, for 10 min at RT and the supernatant liquids removed. The reddish pellets were re-suspended in 1 mL of RBC lysis buffer and combined. The cell suspension was incubated for 5 min at RT in RBC lysis buffer. After incubation 45 mL of Hanks Balanced Salt Solution with no calcium, magnesium or phenol red (HBSS−) was added, the cell suspension was spun (250 g for 10 min at RT), and supernatant liquids were removed. The white pellet was re-suspended in 1 mL of HBSS−, and cell counts were determined. The neutrophil cell suspension was brought to a concentration of 1.11e6 cells/mL in RPMI complete (Sigma-Aldrich), and 180 μL of cell suspension was transferred to all wells within a sterile 96-well tissue culture treated plate resulting in 2.0e5 cells/well. […] After incubation, 10 μL of 2 μg/mL LPS solution in RPMI complete was added to each well except for control wells, which received an additional 10 μL of media. Cells were incubated for 12 h (37° C., 5% CO2), after which plates were centrifuged at 250 g, RT, for 5 min and supernatant liquids were obtained and stored at −80° C. until analyzed via Luminex® Multiplex Assay for various chemokines and cytokines. Three data points were acquired from two different blood donors and averaged.

AhR = AhR activation in Caco-2 cells through CYP1A1 mRNA expression; conditions: overnight
Experimental: Caco-2 cells from American Type Culture Collection (ATCC) were plated in a sterile tissue culture treated 96-well plate (ThermoFisher) at […], and grown overnight at 37° C., 5% CO2 in DMEM complete (Gibco) in order to achieve confluence. After the incubation medium was aspirated off of the Caco-2 monolayers, tissues were then washed with 200 μL of warmed PBS solution, and subsequently 190 μL of pre-warmed growth medium was added to each well. Compounds of interest were diluted at a 20× concentration in growth medium containing 2% DMSO, and 10 μL of compound solutions were added to respective wells in triplicate. Compounds where incubated overnight at 37° C., 5% CO2. 2-(1′H-indole-3′-carbonyl)-thiazole-4-carboxylic acid methyl ester (ITE) was used as the positive control for AhR activation at 1 and 100 μM concentrations. At the end of the incubation, medium was aspirated off of the Caco-2 cells, and the cells washed with 100 μL of cold PBS solution. RNA was extracted via the TaqMan™ Gene Expression Cells-to-CT™ Kit (ThermoFisher) according to the manufacturers protocol. The QuantStudio 6 Flex (Applied Biosciences) was used to analyze mRNA levels of CYP1A1 using GAPDH as the endogenous control. TaqMan™ probe sets for both genes were acquired from ThermoFisher. Samples were run in triplicate and data was analyzed using the QuantStudio software and reported as linear (Table 1) and log 2(ΔΔCT) values. Statistical analysis was performed using a two-tailed t-test comparing CYP1A1 levels in the presence of each individual compound to the vehicle negative control.

Caco-2 colonocytes = test: Human Caco-2 barrier integrity assay (TEER); type: cell-based; conditions: 48 hours
Experimental: At 70-80% confluency, cells were trypsinized and seeded in 0.4 cm^2 transwell collagen I coated membranes with supplemented DMEM in both apical and basolateral compartments. Cells were seeded at a density of 200,000 cells per well and maintained for 10 days to form a polarized barrier with a TransEpithelial […] After 48 hours, TEER readings were taken again and viability was measured by CellTiter 96® AQueous One Solution Cell Proliferation Assay (Promega). The percent change in TEER over the 48 hours was determined and normalized to the 0.1% DMSO control (Table 6).

naïve CD4+ T cells = test: Human regulatory T cell differentiation assay; type: cell-based; conditions: 6 days
Experimental: Peripheral blood mononuclear cells (PBMCs) from whole blood donated by health volunteers were separated by Ficoll-Paque gradient centrifugation and naïve CD4^+ T cells were subsequently isolated using magnet beads (EasySep™ Human Naïve CD4^+ T Cell Isolation Kit, Cambridge, MA). For regulatory T cell (Treg) differentiation assay, naïve CD4^+ T cells were cultured (1-10×10^4 cells) in CTS OpTmizer medium for 6 days and stimulated with 5 ng/ml TGF-β, 100 U/ml IL-2, and ImmunoCult™ Human […] T Cell Activator; Stemcell #10990) with/without our Compounds. Cell viability was determined using a viability dye (eBioscience Fixable Viability Dye eFluor 780: ThermoFisher 65-0865-14) at 1:500 dilution. The cells were gated for Treg, defined as Live, CD11c^−, CD14^−, CD19^−, CD8^−, CD4^+, CD3^+, CD25^+, FOXP3^+. Percent (%) Tregs were calculated as percentage of CD4^+, CD25^+, FOXP3^+ cells over total CD4 T cells. Statistical analysis was performed with GraphPad Prism Software Using One-Way ANOVA.

[1] = Assay 1. Stability in Simulated Gastric Fluid (SGF); type: in vitro ADME; conditions: SGF pH 1.6 with pepsin, 1 μM, 37° C.
How it was run: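 Degradation rate from LC/MS of acetonitrile-quenched aliquots (T0, then regular intervals). Fresh SGF (pH 1.6 NaCl, FaSSIF powder, pepsin 0.1 mg/mL) held compound at 1 μM final, 37° C; 1 mM DMSO stock.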

[2] = Assay 2. Stability in Simulated Intestinal Fluid (SIF); type: in vitro ADME; conditions: SIF pH 6.7 with pancreatin, 1 μM, 37° C.
How it was run: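 Degradation rates came from LC/MS of acetonitrile-quenched samples drawn at intervals, starting at T0. The medium was freshly made pH 6.7 FaSSIF containing pancreatin, and test compound was present at 1 µM while being shaken at 37 °C.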

CD4+CD25+ Treg cells = test: In vivo induction of CD4+CD25+ Treg cells in high-fat diet fed mice; conditions: C57BL/6 mice on high-fat diet, 6% in diet ad libitum; compared to EGCG, acetate, or their combination
Description: Acylated active agents disclosed herein may be useful in modulating autoimmunity markers and for treating autoimmune disorders.

[3] = test system: adoptive T-cell transfer mice; test: Adoptive T-cell transfer study; type: in vivo, CB-17 SCID mice; conditions: compound 44 100 mg/kg, olsalazine 30 mg/kg, through day 42, compared to the vehicle control
Description: On study day 0, naïve T-cells were obtained from the spleen of 11 to 12 week-old Balb/C mice using the SCID Cell Separation Protocol with the following labelling scheme; CD4+CD45RB^highCD25− and CD4+CD45RB^lowCD25+ cell (APC CD4 Antibody (100412), FITC CD45RB Antibody (103306), PE CD25 Antibody (101904), from BioLegend, San Diego, CA, and CD4 cell enrichment kit: 19752A, Stemcell Technologies, Cambridge, MA) and the 4×10^5 of CD4^+CD45RB^highCD25− cells were transferred 6-7 weeks old CB-17 SCID mice. Recipient mice were randomized based on their body weight (n=12 mice/group), and received […] of vehicle (0.5% methyl-cellulose) (vehicle control), 0.5 mg per mouse of anti-IL-12 (positive control), 30 mg/kg of olsalazine (positive treatment group), and 100 mg/kg of compound 44 (compound treatment group) through day 42. On day 42, animals were anesthetized with Isoflurane and bled to exsanguination followed by cervical dislocation. The entire colon was removed and the overall efficacy of compound 44 was assessed based on colon length and weight per length. […] Statistical analysis was performed with GraphPad Prism (GraphPad Software). Mann-Whitney U test was used to assess significance between the vehicle control and each treatment group.

DSS Colitis = test: In vivo DSS colitis; set-up: species or system Swiss Webster mice; conditions: 100 mg/kg once a day oral gavage, study day 0 through 7, compared to the vehicle control
Description: Specific pathogen-free female Swiss Webster mice, 6-8 weeks old, weighing 16-20 g were obtained from Harlan. Mice were randomized into treatment groups (n=10) based on body weight on study day −2. From study day 0 through 5, all groups were given 3% dextran sulfate sodium (DSS, Spectrum, Lot #2DC0020) in drinking water. On study day 5 through, drinking water was switched to water without DSS until the study end on day 7. From study day 0 through 7, the negative control (vehicle), positive control (cyclosporine A), and the treatment groups were given vehicle (1% Methylcellulose (Sigma, 400 cP)), cyclosporine A (70 mg/kg), and compound 44 (100 mg/kg) once a day until study day 7 via oral gavage. On study day 7, animals were anesthetized with Isoflurane and bled to exsanguination followed by cervical dislocation. The entire colon was removed and the overall efficacy of compound 44 was assessed based on colon histopathology. […] Statistical analysis was performed with GraphPad Prism (GraphPad Software). Mann-Whitney U test was used to assess significance between the vehicle control and each treatment group.

[4] = Detection of mesalamine and compound 44 in feces after dosing with compound 44; type: in vivo, Swiss Webster mice; conditions: detected after dosing with Compound 44, oral gavage 10 mg/mL suspension at 10 mL/kg, mice
Experimental: Samples were frozen and stored at −70° C. until analysis. Quantification of mesalamine and compound 44 were done via bioanalysis using LC-MS/MS.

[5] = Detection of compound 44 in whole blood after dosing with compound 44; type: in vivo, Swiss Webster mice; conditions: detected after dosing with Compound 44, oral gavage 10 mg/mL suspension at 10 mL/kg, mice
Experimental: Whole blood (125 uL) was collected submandibular and transferred to chilled K2EDTA tubes pre-filled with 125 uL of acetonitrile and frozen at −70° C. until analysis. Mice (1-3) were sampled at 5 min, 1 hr, and 8 hr. Mice (4-6) were sampled at 15 min, 2 hours and 24 hours. Mice (7-9) were sampled at 30 min and 4 hrs. Quantification of compound 44 was done via bioanalysis using LC-MS/MS.

Q: What does the source list for `O=C(O[C@@H]1Cc2c(O)cc(O)cc2O[C@@H]1c1cc(O)c(O)c(O)c1)c1cc(O)c(O)c(O)c1` [EGCG, epigallocatechin gallate]?
A: % IL-8 (Vehicle + LPS = 100%) (neutrophil; 0.1 μM): − (− = >90% Vehicle); % MIP-1α (Vehicle + LPS = 100%) (neutrophil; 0.1 μM): − (− = >90% Vehicle); % MIP-1β (DMSO + LPS = 100%) (neutrophil; 0.1 μM): − (− = >90% Vehicle); % IL-8 (Vehicle + LPS = 100%) (neutrophil; 1.0 μM): − (− = >90% Vehicle); % MIP-1α (Vehicle + LPS = 100%) (neutrophil; 1.0 μM): − (− = >90% Vehicle); % MIP-1β (DMSO + LPS = 100%) (neutrophil; 1.0 μM): − (− = >90% Vehicle); Average CYP1A1 mRNA levels (AhR; 0.1 μM): − (- = <2-fold Vehicle); Average CYP1A1 mRNA levels (AhR; 1.0 μM): − (- = <2-fold Vehicle); % Change in TEER from DMSO (Caco-2 colonocytes; 100 nM + cytokines): − (<125%: −); % Change in TEER from DMSO (Caco-2 colonocytes; 1 μM + cytokines): − (<125%: −); Cell viability % DMSO (naïve CD4+ T cells; 100 nM): = (90%> <110%: =); Treg induction % DMSO (naïve CD4+ T cells; 100 nM): = (90%> <110%: =); Cell viability % DMSO (naïve CD4+ T cells; 1 uM): = (90%> <110%: =); Treg induction % DMSO (naïve CD4+ T cells; 1 uM): = (90%> <110%: =)

Q: Which results are given for `CC(=O)Oc1cc(OC(C)=O)c2c(c1)O[C@H](c1cc(OC(C)=O)c(OC(C)=O)c(OC(C)=O)c1)[C@H](OC(=O)c1cc(OC(C)=O)c(OC(C)=O)c(OC(C)=O)c1)C2` [Compound 2, [(2R,3R)-5,7-diacetoxy-2-(3,4,5-triacetoxyphenyl)chroman-3-yl] 3,4,5-triacetoxybenzoate]?
A: Assay 1 (SGF) (% Remaining @ 1 hour) [1]: C (>75% of the tested compound remaining); Assay 2 (SIF) (% @ Remaining 4 hours) [2]: A (<25% of the tested compound remaining); CD4+CD25+ Treg cells (CD4+CD25+ cell counts as a percentage of all CD4+ T cells, FIG. 1) (CD4+CD25+ Treg cells): induce CD4^+CD25^+ Treg cells

Q: With `O=C(O)c1cc(/N=N/c2ccc(O)c(C(=O)O)c2)ccc1O` [olsalazine, reference compound] as the compound, how does the “colon weight per length (FIG. 3B)” value [3] read?
A: The value was “significantly increased the colon weight per length”.

Q: What does the source list for `CCCC(=O)O[C@H]1[C@H](OC(=O)CCC)COC(Oc2ccc(N)cc2C(=O)O)[C@@H]1OC(=O)CCC.Cl` (stereo in doubt) [Compound 44, 5-amino-2-(((2S,3R,4S,5R)-3,4,5-tris(butyryloxy)tetrahydro-2H-pyran-2-yl)oxy)benzoic acid hydrochloride]?
A: mucosal thickness (colon histopathology, FIG. 2) (DSS Colitis): significant reduction in mucosal thickness; colon length (FIG. 3A) [3]: significant increased; colon weight per length (FIG. 3B) [3]: reduced; Concentration, uM (compound 44) [4]: 10.72 µM; Concentration, uM (compound 44) [5]: 0.68 µM
